{"source": "patent US9464077B2", "about": "“Nitrogen-containing aromatic heterocyclic compound” (Astellas Pharma Inc., priority 2012, dated 2016)", "key": {"[1]": {"system": "bladder cancer patient-derived cell line RT4", "assay": "Anchorage-independent cell growth inhibition, spheroid plate", "type": "cell-based", "details": "Homo sapiens, 96 h, 4 days, read-out: growth inhibition rate RT4"}, "[2]": {"system": "FGFR3-TACC3_v3 (N-FLAG) fusion polypeptide", "assay": "In vitro kinase activity inhibition (HTRF KinEASE-TK)", "type": "biochemical, human", "details": "100 μM ATP"}}}
{"compound": "COc1cc(OC)c(F)c(COc2cnc(Nc3ccc(N4CCC(NCCO)CC4)cc3)nc2)c1F", "note": "[Example 299]", "values": [{"measurement": "inhibition at 0.001 µM", "setting": "[1]; 1 nM", "value": 8, "unit": "%"}, {"measurement": "inhibition at 0.01 µM", "setting": "[1]; 10 nM", "value": 45, "unit": "%"}, {"measurement": "inhibition at 0.1 µM", "setting": "[1]; 100 nM", "value": 63, "unit": "%"}, {"measurement": "rate of inhibiting kinase activity v3", "setting": "[2]; 1 nM", "value": 47, "unit": "%"}, {"measurement": "rate of inhibiting kinase activity v3", "setting": "[2]; 10 nM", "value": 88, "unit": "%"}, {"measurement": "rate of inhibiting kinase activity v3", "setting": "[2]; 100 nM", "value": 96, "unit": "%"}]}
